The source of these data is PubChem BioAssay (NCI).

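Following 48 hours of exposure in 96-well plates, responses at five concentrations were used to interpolate endpoints linearly. The concentration for 50% growth inhibition is given as GI50. TGI denotes the concentration required for complete inhibition of growth.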

Some test systems named below: DMS 273 small cell lung; SNB-78 CNS; XF 498 CNS; LXFL 529 NSCLC; DMS 114 small cell lung; DLD-1 colon; KM20L2 colon; M19-MEL melanoma; MDA-MB-435; HS 578T breast; DU-145 prostate; MCF7 breast; BT-549 breast.
Holding throughout (test): DTP human tumour cell line panel, 48 h

A word on the TGI: it is the concentration giving total growth inhibition. As for `S=c1o[nH]c(-c2ccccc2)c1C=Nc1ccccc1`, the TGI with DMS 273 small cell lung, in the assay on SNB-78 CNS, in the assay with XF 498 CNS, in the assay on LXFL 529 NSCLC, in the assay on DMS 114 small cell lung and with DLD-1 colon was greater than 100 µM throughout.

For the compound `Cc1cccc(C)c1NC(=O)CCc1nnc2s/c(=C\c3ccc(N(C)C)cc3)c(=O)n12`, the TGI in the assay with DMS 273 small cell lung, in the assay with KM20L2 colon, in the assay on SNB-78 CNS, in the assay on XF 498 CNS, in the assay on LXFL 529 NSCLC and in the assay with DMS 114 small cell lung was greater than 100 µM throughout. For the same compound, the TGI in the assay with DLD-1 colon was greater than 100 µM.

On to `O=[P+](O)c1ccccn1`, for which the TGI in the assay on M19-MEL melanoma, with DMS 273 small cell lung, in the assay with KM20L2 colon, with SNB-78 CNS, in the assay with XF 498 CNS and with LXFL 529 NSCLC was greater than 100 µM each time. In addition, the TGI in the assay on DMS 114 small cell lung and with DLD-1 colon was greater than 100 µM throughout.

In the case of `CC(C)c1ccc(C2NC(=S)NC3=C2c2ccccc2C3=O)cc1` (stereo unspecified), the TGI in the assay with M19-MEL melanoma was greater than 100 µM; in the assay on MDA-MB-435, 21.4 µM; in the assay on HS 578T breast, 42.1 µM; in the assay with DMS 273 small cell lung, greater than 100 µM; in the assay with DU-145 prostate, 31.7 µM; in the assay with KM20L2 colon, 64.5 µM. Besides, the TGI with MCF7 breast is 23.1 µM; in the assay on XF 498 CNS, greater than 100 µM; in the assay on BT-549 breast, 31.6 µM; with LXFL 529 NSCLC, greater than 100 µM; with DMS 114 small cell lung, 58.8 µM; with DLD-1 colon it was greater than 100 µM.

Regarding `O=c1c2ccccc2[nH]c2c(O)ccc(O)c12`, the TGI with M19-MEL melanoma is 63.6 µM; with DMS 273 small cell lung, 30.5 µM; in the assay on KM20L2 colon, greater than 100 µM; with SNB-78 CNS, 39.6 µM; with XF 498 CNS, 30.9 µM; in the assay with LXFL 529 NSCLC it was 28.5 µM. The compound further gave a TGI in the assay on DMS 114 small cell lung of 42.5 µM.

Broadly, the GI50 is the concentration that inhibits growth by half. As to `O=C1Nc2cc(-c3cccc(O)c3)ccc2/C1=C/c1ccc[nH]1`, the GI50 in the assay on MDA-MB-435 was 0.391 µM; in the assay with HS 578T breast, 1.51 µM; in the assay on DU-145 prostate, 3.16 µM; in the assay with MCF7 breast, 0.257 µM; in the assay with BT-549 breast it was 0.506 µM. In addition, the TGI in the assay on MDA-MB-435 was found to be 1.66 µM; in the assay with HS 578T breast, 5.73 µM; in the assay with DU-145 prostate, 23.6 µM; with MCF7 breast it was 2.44 µM; in the assay on BT-549 breast, 3.96 µM.

Turning to `Cc1ccc(C(=O)c2sc3nc4c(cc3c2N)CCCC4)c(C)c1`, the GI50 in the assay with MDA-MB-435 was 0.0258 µM; in the assay with HS 578T breast, 0.415 µM; in the assay on DU-145 prostate, 0.838 µM; in the assay with MCF7 breast, 0.162 µM; in the assay on BT-549 breast, 1.2 µM. The TGI in the assay with MDA-MB-435 was 0.086 µM; in the assay on HS 578T breast it was greater than 100 µM; in the assay on DU-145 prostate, greater than 100 µM; in the assay with MCF7 breast it was greater than 100 µM; with BT-549 breast it was greater than 100 µM.

`CNC(=O)c1cc(Oc2cccc3nc(NC(=O)Nc4cc(C(F)(F)F)cc(C(F)(F)F)c4)ccc23)ccn1`: the GI50 with MDA-MB-435 is 4.7 µM; in the assay with HS 578T breast, 2.57 µM; with DU-145 prostate, 6.29 µM; in the assay on MCF7 breast, 7.43 µM; with BT-549 breast it was 11.4 µM. Further, the TGI in the assay on MDA-MB-435 was greater than 100 µM; in the assay on HS 578T breast it was 13.5 µM; with DU-145 prostate, 65.9 µM; in the assay with MCF7 breast it was 66.6 µM; in the assay on BT-549 breast it was 55.6 µM.

As to `CCOC(=O)C(=O)Nc1cc(Cl)c(Cl)cc1Cl`, the TGI in the assay on M19-MEL melanoma, in the assay on DMS 273 small cell lung, in the assay with KM20L2 colon, with SNB-78 CNS, in the assay on LXFL 529 NSCLC and with DMS 114 small cell lung was greater than 100 µM in each case.

Consider `CCCOc1cc2ccccc2cc1C(=O)Nc1nc(NC)c2c(ccc3nccc32)[nH]1`, for which the GI50 in the assay with MDA-MB-435 is 0.0401 µM; in the assay on HS 578T breast, 1.42 µM; in the assay with DU-145 prostate, 0.345 µM; in the assay on MCF7 breast, 0.263 µM; in the assay with BT-549 breast, 1.45 µM. Besides, the TGI in the assay with MDA-MB-435 came out at 0.197 µM; with HS 578T breast it was 3.85 µM; in the assay with DU-145 prostate, 1.23 µM; in the assay on MCF7 breast, 1.31 µM; with BT-549 breast, 3.02 µM.

On to `N#Cc1ccc(-c2c(-c3ncn[nH]3)sc(N3CCOCC3)c2C#N)c(F)c1`, for which the GI50 in the assay with MDA-MB-435 was 0.995 µM; in the assay on HS 578T breast, 0.381 µM; in the assay with DU-145 prostate, 1.66 µM; with MCF7 breast, 0.135 µM; in the assay with BT-549 breast, 3.84 µM. In addition, the total growth inhibition concentration (TGI) with MDA-MB-435 was 17 µM; in the assay with HS 578T breast it was 4.85 µM; in the assay on DU-145 prostate, greater than 100 µM; in the assay with MCF7 breast, 17.7 µM; in the assay with BT-549 breast, 39.2 µM.

For `CO[C@@H]1CCN(c2nccc(Nc3cc4c(C(C)C)ccc(N5CC(CS(C)(=O)=O)[C@H]5C)c4cn3)n2)C[C@@H]1F` (stereo partly specified), the GI50 in the assay with MDA-MB-435 is 4.96 µM; with HS 578T breast, 4.26 µM; in the assay on DU-145 prostate, 2.45 µM; in the assay with MCF7 breast it was 3.15 µM; with BT-549 breast, 4.55 µM. Also, the TGI in the assay with MDA-MB-435 turned out to be 83.9 µM; in the assay on HS 578T breast, 41.5 µM; with DU-145 prostate, 45.1 µM; with MCF7 breast, 14.8 µM; in the assay with BT-549 breast, 35.4 µM.

For `CN(C)C(=O)OCc1nc2c(N3CCOCC3)nc(-c3ccccc3)nc2n1C`, the GI50 in the assay with MDA-MB-435 is 0.891 µM; in the assay with HS 578T breast, 1.42 µM; with DU-145 prostate it was 1.05 µM; in the assay with MCF7 breast it was 0.427 µM; in the assay on BT-549 breast, 1.04 µM. In addition, the TGI was 2.27 µM in the assay on MDA-MB-435; 4.33 µM with HS 578T breast; 2.28 µM with DU-145 prostate; 2.09 µM in the assay with MCF7 breast; 2.32 µM in the assay with BT-549 breast.

As for `CNCC/C=C1\c2cc3c(cc2-c2c1c1cc(OC)c(OC)cc1c(=O)n2C)OCO3`, the GI50 was 0.836 µM in the assay on MDA-MB-435; 8.88 µM in the assay on HS 578T breast; 0.428 µM in the assay on DU-145 prostate; 0.161 µM in the assay with MCF7 breast; 3.66 µM in the assay on BT-549 breast. Besides, the TGI in the assay with MDA-MB-435 was 15 µM; with HS 578T breast, 38.9 µM; in the assay on DU-145 prostate it was 8.84 µM; in the assay with MCF7 breast, greater than 36.9 µM; in the assay on BT-549 breast, 22.5 µM.
